The source of these data is ChEMBL document CHEMBL4152226, “Novel Mannich bases of α- and γ-mangostins: Synthesis and evaluation of antioxidant and membrane-protective activity” (Eur J Med Chem, 2018).

Data set [1] deals with Erythrocyte. In words: Antioxidant activity against H2O2-induced oxidative stress in mouse RBC assessed as inhibition of LPO accumulation at 1 uM pretreated for 30 mins followed by H2O2 addition and measured after 4 hrs by TBARS assay relative to control. The format is functional.
In data set [2] the test system is Erythrocyte. Briefly: Protection against H2O2-induced oxidative stress in mouse RBC assessed as inhibition of hemolysis at 10 uM pretreated for 30 mins followed by H2O2 addition and measured after 5 hrs by malondialdehyde indicator based assay relative to control. The format is functional.
Data set [3] in a line: Antioxidant activity assessed as DPPH radical scavenging activity at 10 to 100 uM incubated in dark for 30 mins. The format is functional.
The test system of data set [4] is Erythrocyte. Briefly: Hemolytic activity against mouse RBC at 30 uM measured after 5 hrs by malondialdehyde indicator based assay. The format is ADME, cell-based.
Data set [5] relates to Erythrocyte. Briefly: Protection against H2O2-induced oxidative stress in mouse RBC assessed as inhibition of hemolysis at 1 uM pretreated for 30 mins followed by H2O2 addition and measured after 5 hrs by malondialdehyde indicator based assay relative to control. The format is functional.
The subject of data set [6] is Erythrocyte. Briefly: Antioxidant activity against H2O2-induced oxidative stress in mouse RBC assessed as inhibition of LPO accumulation at 10 uM pretreated for 30 mins followed by H2O2 addition and measured after 4 hrs by TBARS assay relative to control. The format is functional.
A short description of data set [7]: Metal chelating activity assessed as compound-Fe2+ complex formation at 10 uM after 10 mins by FerrozineTM iron reagent based assay.
For data set [8], the system named is Erythrocyte. Briefly: Antioxidant activity against H2O2-induced oxidative stress in mouse RBC assessed as inhibition of LPO accumulation at 0.05 uM pretreated for 30 mins followed by H2O2 addition and measured after 4 hrs by TBARS assay relative to control. The format is functional.
In data set [9] the test system is Erythrocyte. In words: Protection against H2O2-induced oxidative stress in mouse RBC assessed as inhibition of hemolysis at 0.05 uM pretreated for 30 mins followed by H2O2 addition and measured after 5 hrs by malondialdehyde indicator based assay relative to control. The format is functional.
Data set [10] in a line: Antioxidant activity assessed as DPPH radical scavenging activity at 100 uM incubated in dark for 30 mins relative to control. The format is functional.
The nature of data set [11]: Hemolytic activity against mouse RBC assessed as hemolysis measured after 5 hrs by malondialdehyde indicator based assay relative to control. The format is ADME, cell-based, Erythrocyte. The settings on record: mouse red blood cells (erythrocytes), read-out: Activity.

Activity calls are given as the source filed them. The calls are words filed in the database; no cut-off is given here.

As for `CCCCNCc1c(O)c(CC=C(C)C)c(O)c2c(=O)c3c(CC=C(C)C)c(OC)c(O)c(CN(C)C)c3oc12`, the inhibition at 1 µM stood at 53.5% in [1] and 36.8% in data set [5]. Moreover, the inhibition at 10 µM in data set [2] is 50%; in [6] it was 61.5%. The result in [3] was Active. Further, in [4], the Activity entry is on record as “Non-Toxic”.
On to `CC(C)=CCc1c(O)c(CN(C)C)c2oc3c(CN(C)C)c(O)c(O)c(CC=C(C)C)c3c(=O)c2c1O`, for which the result in data set [7] and in [3] was Active. Moreover, the inhibition at 0.05 µM in data set [8] stood at 67.7%; in [9], 78%. In addition, the Activity entry in data set [4] is listed as “Non-Toxic”. In addition, in data set [5], the inhibition at 1 µM is 15.3%. Also, the inhibition at 10 µM in [6] was determined as 75.7%.
In the case of `COc1c(O)cc2oc3c(CN(C)C)c(O)c(CC=C(C)C)c(O)c3c(=O)c2c1CC=C(C)C`, in data set [10], the Activity lay within 13.1 to 16%. For the same compound, the hemolysis at 5 h in data set [11] stood at 63.1%.
Regarding `COc1c(O)cc2oc3c(CN4CCCCCC4)c(O)c(CC=C(C)C)c(O)c3c(=O)c2c1CC=C(C)C`, the inhibition at 1 µM in [1] turned out to be 51.2%; in data set [5], 27.6%. In addition, the outcome in data set [7] and in data set [3] was Active. The figures for the inhibition at 10 µM in data set [2] and in data set [6] were 10.8% and 48.9%, respectively. The Activity entry in data set [4] is given as “Non-Toxic”.
Turning to `COc1c(O)cc2oc3c(CN4CCCC4)c(O)c(CC=C(C)C)c(O)c3c(=O)c2c1CC=C(C)C`, the inhibition at 1 µM in data set [1] stood at 56.4%; in data set [5] it was 29.2%. The result in data set [7] and in [3] was Active. Besides, the inhibition at 10 µM in data set [2] was determined as 17.5%; in data set [6] it was 68.2%. Moreover, the Activity entry in [4] is “Non-Toxic”.
Turning to `CCCCNCc1c(O)c(CC=C(C)C)c(O)c2c(=O)c3c(CC=C(C)C)c(OC)c(O)cc3oc12`, the inhibition at 1 µM was 60.5% in [1] and 46.4% in [5]. For the same compound, the inhibition at 10 µM in data set [2] worked out at 31.9%; in [6], 70.5%. Further, the result in data set [3] was Active. For the same compound, the Activity entry in [4] is on record as “Non-Toxic”.
Consider `CC(C)=CCc1c(O)c(CN2CCOCC2)c2oc3c(CN4CCOCC4)c(O)c(O)c(CC=C(C)C)c3c(=O)c2c1O`, for which the outcome in data set [7] and in data set [3] was Active. Moreover, the inhibition at 0.05 µM in data set [8] is 78.5%; in [9], 79.6%. In data set [4], the Activity result was “Non-Toxic”. In addition, in [5], the inhibition at 1 µM worked out at 6.9%. Further, in data set [6], the inhibition at 10 µM worked out at 68.8%.
Regarding `COc1c(O)c(CN2CCCCCC2)c2oc3c(CN4CCOCC4)c(O)c(CC=C(C)C)c(O)c3c(=O)c2c1CC=C(C)C`, the inhibition at 1 µM in data set [1] came out at 56.1%; in [5], 37.5%. For the same compound, the inhibition at 10 µM in [2] is 17.7%; in [6], 33.6%. Moreover, the result in [3] was Active. For the same compound, in data set [4], the Activity entry was “Non-Toxic”.
Turning to `COc1c(O)cc2oc3c(CN4CCOCC4)c(O)c(CC=C(C)C)c(O)c3c(=O)c2c1CC=C(C)C`, in [10], the Activity lay in the range of 13.1 to 16%.
With `COc1c(O)cc2oc3cc(O)c(CC=C(C)C)c(O)c3c(=O)c2c1CC=C(C)C` [MANGOSTIN], the figures for the inhibition at 1 µM in [1] and in [5] were 54.2 to 66.9% and 60.2 to 60.9%, respectively. The inhibition at 10 µM in [2] lay within 44.4 to 46.3%; in [6], 59.8 to 67%. In data set [3], the outcome was Active. The Activity result in data set [4] was “Non-Toxic”.
As for `COc1c(O)cc2oc3c(CN4CCCCC4)c(O)c(CC=C(C)C)c(O)c3c(=O)c2c1CC=C(C)C`, the Activity in data set [10] lay within 13.1 to 16%.
As for `CC(C)=CCc1c(O)c(CN2CCCCCC2)c2oc3c(CN4CCCCCC4)c(O)c(O)c(CC=C(C)C)c3c(=O)c2c1O`, the result in data set [7] and in data set [3] was Active. Further, the inhibition at 0.05 µM in data set [8] was 69%; in data set [9], 74.3%. Further, the Activity result in data set [4] is recorded as “Non-Toxic”. Besides, in data set [5], the inhibition at 1 µM stood at 9%. For the same compound, the inhibition at 10 µM in [6] amounted to 71.5%.
For the compound `COc1c(O)c(CN2CCOCC2)c2oc3c(CN4CCOCC4)c(O)c(CC=C(C)C)c(O)c3c(=O)c2c1CC=C(C)C`, the figures for the inhibition at 1 µM in data set [1] and in [5] were 76.1% and 75.6%, respectively. Besides, the inhibition at 10 µM in [2] came to 22%; in data set [6] it was 57.4%. Moreover, the result in data set [3] was Active. Besides, the Activity entry in [4] was “Non-Toxic”.
As to `CC(C)=CCc1c(O)cc2oc3cc(O)c(O)c(CC=C(C)C)c3c(=O)c2c1O`, the outcome in data set [3] was Active. The inhibition at 0.05 µM turned out to be 72.8% in data set [8] and 85.9% in data set [9]. Also, in data set [4], the Activity entry was “Non-Toxic”. For the same compound, the inhibition at 1 µM in data set [5] turned out to be 15.1%. Further, the inhibition at 10 µM in data set [6] worked out at 68.1%.
As for `COc1c(O)c(CN2CCCCCC2)c2oc3c(CN4CCCCCC4)c(O)c(CC=C(C)C)c(O)c3c(=O)c2c1CC=C(C)C`, the inhibition at 1 µM in data set [1] amounted to 34.8%; in [5] it was 35%. Also, the inhibition at 10 µM in data set [2] amounted to 19%; in data set [6] it was 54.1%. In addition, the outcome in data set [3] was Active. Further, in data set [4], the Activity result is reported as “Non-Toxic”.
With `COc1c(O)c(CN(C)C)c2oc3c(CN(C)C)c(O)c(CC=C(C)C)c(O)c3c(=O)c2c1CC=C(C)C`, the inhibition at 1 µM in data set [1] was 56.1%; in [5], 41%. In addition, the inhibition at 10 µM in [2] is 66.3%; in [6] it was 58.2%. In data set [3], the result was Active. The Activity entry in data set [4] is on record as “Toxic”.
